Experimental findings from patent publication US20070043036A1, “2-Pyridone derivatives as neutrophil elastase inhibitors and their use” (priority 2003, published 2007) are described below.

The assay concerns the target T1, Human Neutrophil Elastase (HNE) (Homo sapiens, UniProt P08246).
T1 construct: Human Neutrophil Elastase (HNE) purified from serum; purchased Calbiochem 324681; host or cells: natural source; printed as 'purified from serum'
T1 sequence (P08246 30-247 limits assumed): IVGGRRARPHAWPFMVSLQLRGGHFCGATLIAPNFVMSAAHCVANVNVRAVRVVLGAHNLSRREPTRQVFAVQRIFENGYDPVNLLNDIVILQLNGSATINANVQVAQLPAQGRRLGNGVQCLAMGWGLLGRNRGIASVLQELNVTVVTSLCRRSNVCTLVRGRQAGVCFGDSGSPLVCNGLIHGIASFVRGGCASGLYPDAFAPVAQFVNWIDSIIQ
The assay is described as follows: Human Neutrophil Elastase Quenched-FRET Assay. The class given is biochemical. The conditions noted are these: HNE purified from serum; substrate MeOSuc-AAPV-AMC; 15 min pre-incubation, 30 min incubation at room temperature; read-out: Inhibition of Human Neutrophil Elastase IC50. The protocol:
Human Neutrophil Elastase Quenched-FRET Assay
The assay uses Human Neutrophil Elastase (HNE) purified from serum (Calbiochem art. 324681; Ref. Baugh, R. J. et al., 1976, Biochemistry. 15, 836-841). HNE was stored in as 50 mM NaOAc, 200 mM NaCl, pH 5.5 with added 30% glycerol at −20° C. The protease substrate used was Elastase Substrate V Fluorogenic, MeOSuc-AAPV-AMC (Calbiochem art. 324740; Ref. Castillo, M. J. et al., 1979, Anal. Biochem. 99, 53-64). The substrate was stored in DMSO at −20° C. The assay additions were as follows: Test compounds and controls were added to black 96-well flat-bottom plates (Greiner 655076), 1 μL in 100% DMSO, followed by 30 μL HNE in assay buffer with 0.01% TritonX-100. The assay buffer constitution was: 100 mM Tris (pH 7.5) and 500 mM NaCl. The enzyme and the compounds were incubated at room temperature for 15 minutes. Then 30 μl substrate in assay buffer was added. The assay was stopped after 30 minutes incubation at room temperature by adding 60 μl stop solution (140 mM acetic acid, 200 mM sodium monochloroacetate, 60 mM sodium acetate, pH 4.3). Fluorescence was measured on a Wallac 1420 Victor 2 instrument at settings: Excitation 380 nm, Emission 460 nm. IC50 values were determined using Xlfit curve fitting using model 205.

In general, IC50 refers to the concentration at which inhibition is half-maximal.

In the case of `Cc1c(CCc2cccnc2)cc(C(=O)NCc2ccc(S(C)(=O)=O)cc2)c(=O)n1-c1cccc(C(F)(F)F)c1` [Example 8, 6-Methyl-N-[4-(methylsulfonyl)benzyl]-2-oxo-5-(2-pyridin-3-ylethyl)-1-[3-(trifluoromethyl)phenyl]-1,2-dihydropyridine-3-carboxamide], the IC50 came out at 0.083 µM.
For `CCCN(C)C(=O)c1cc(C(=O)NCc2ccc(S(C)(=O)=O)cc2)c(=O)n(-c2cccc(C(F)(F)F)c2)c1C` [Example 16, 6-Methyl-2-oxo-1-(3-trifluoromethyl-phenyl)-1,2-dihydro-pyridine-3,5-dicarboxylic acid 3-(4-methanesulfonyl-benzylamide)5-(methyl-propyl-amide)], the IC50 came out at 0.048 µM.
Take `Cc1c(C(=O)N2CCC[C@@H]2CO)cc(C(=O)NCc2ccc(S(C)(=O)=O)cc2)c(=O)n1-c1cccc(C(F)(F)F)c1` [Example 19, 5-((2R)-2-Hydroxymethyl-pyrrolidine-1-carbonyl)-6-methyl-2-oxo-1-(3-trifluoromethyl-phenyl)-1,2-dihydro-pyridine-3-carboxylic acid 3-(4-methanesulfonyl-benzylamide)]: the IC50 amounted to 0.099 µM.
Then `Cc1c(CNCC2CC2)cc(C(=O)NCc2ccc(S(C)(=O)=O)cc2)c(=O)n1-c1cccc(C(F)(F)F)c1` [Example 58, 5-{[(Cyclopropylmethyl)amino]methyl}-6-methyl-N-[4-(methylsulfonyl)benzyl]-2-oxo-1-[3-(trifluoromethyl)phenyl]-1,2-dihydropyridine-3-carboxamide], with 0.051 µM.
In the case of `Cc1c(OCCO)cc(C(=O)NCc2ccc(S(C)(=O)=O)cc2)c(=O)n1-c1cccc(C(F)(F)F)c1` [Example 66, 5-(2-Hydroxyethoxy)-6-methyl-N-[4-(methylsulfonyl)benzyl]-2-oxo-1-[3-(trifluoromethyl)phenyl]-1,2-dihydropyridine-3-carboxamide], the IC50 stood at 0.022 µM.
